Results on four compounds are retold here after PMC9646721, “Alkaloid binding to opium poppy major latex proteins triggers structural modification and functional aggregation” (Nature Communications, 2022).

Data set [1] concerns the target PR10-4. To be noted: read-out: Kd (ANS-protein, apparent); ANS 10 µM fixed, protein 0 to 100 µM; CBS pH 5.5; one-site hyperbolic model.
Experimental: (§4) 8-anilino-1-naphthalenesulfonic acid (ANS) fluorescence binding curves and the binding-induced reduction in ANS fluorescence resulting from competition with tested ligands across a range of concentration facilitated the measurement of IC50 and an estimate of Kd values using the binding models and procedures described previously[70]. […] ANS was dissolved in dimethylsufoxide at a concentration of 20 mM, stored at −20 °C until dilution and protected from exposure to light. […] 40 µl of the ANS solution and 40 µl of each MLP/PR10 protein solution were combined to 80 µl final reaction volumes, which were incubated at 21 °C for 10 min to allow equilibration of binding. Triplicate 18-µl aliquots were withdrawn from each 80 µl reaction, transferred to optically clear PCR tubes (Diamed, Canada) and ANS fluorescence was measured following an additional 3-min incubation at 30 °C using a Qiagen Rotor-gene Q 6-plex with excitation and emission filters of 365 ± 20 nm and 460 ± 20 nm, respectively. An identical reaction series whereby protein was omitted from the mixtures was measured under identical conditions and trace fluorescence was subtracted from each MLP/PR10 protein-containing sample. […]
For data set [2], the target named is PR10-12. To be noted: read-out: Kd (ANS-protein, apparent); ANS 10 µM fixed, protein 0 to 100 µM; CBS pH 5.5; one-site hyperbolic model.
Experimental: as §4
Data set [3] deals with T1, NISO (Papaver somniferum, UniProt P0DYP9). Put plainly: ANS fluorescence binding curve (direct ANS-protein affinity). Details: made in house; host or cells: E. coli ArcticExpress (DE3). To be noted: Kd (ANS-protein, apparent), ANS 10 µM fixed, protein 0 to 100 µM; CBS pH 5.5; one-site hyperbolic model.
Experimental: (§5) 8-anilino-1-naphthalenesulfonic acid (ANS) fluorescence binding curves and the binding-induced reduction in ANS fluorescence resulting from competition with tested ligands across a range of concentration facilitated the measurement of IC50 and an estimate of Kd values using the binding models and procedures described previously[70]. […] ANS was dissolved in dimethylsufoxide at a concentration of 20 mM, stored at −20 °C until dilution and protected from exposure to light. […] 40 µl of the ANS solution and 40 µl of each MLP/PR10 protein solution were combined to 80 µl final reaction volumes, which were incubated at 21 °C for 10 min to allow equilibration of binding. […] An identical reaction series whereby protein was omitted from the mixtures was measured under identical conditions and trace fluorescence was subtracted from each MLP/PR10 protein-containing sample. Each data set was scaled so that the maximum observed fluorescence corresponded to 100% and individual data points were plotted, and a rectangular hyperbolic ligand binding function was fit, using least-squares analysis (Prism 5 software, Graphpad, USA). Experiments were repeated at least twice with independently prepared protein.
Data set [4] concerns the target T2, MLP15 (Papaver somniferum, UniProt P19825).
T2 sequence (P19825 1-159): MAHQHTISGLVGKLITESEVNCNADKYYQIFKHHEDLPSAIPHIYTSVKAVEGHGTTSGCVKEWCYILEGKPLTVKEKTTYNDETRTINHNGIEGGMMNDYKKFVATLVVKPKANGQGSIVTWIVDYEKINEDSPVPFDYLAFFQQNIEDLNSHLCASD
Described as above. Set-up: made in house; host or cells: E. coli ArcticExpress (DE3). To be noted: Kd (ANS-protein, apparent), ANS 10 µM fixed, protein 0 to 100 µM; CBS pH 5.5; one-site hyperbolic model.
Experimental: as §5

The target in data set [5] is T3, THS2 (Papaver somniferum, UniProt A0A2U9GGW3). The data set is described as above. Set-up: made in house; host or cells: E. coli ArcticExpress (DE3). To be noted: Kd (ANS-protein, apparent), ANS 10 µM fixed, protein 0 to 100 µM; CBS pH 5.5; one-site hyperbolic model.
Experimental: as §5
The target of data set [6] is T2, MLP15. Put plainly: Isothermal titration calorimetry. Set-up: made in house; host or cells: E. coli ArcticExpress (DE3). The format is binding. To be noted: ITC, CBS pH 5.5, 25 °C. The method, then:
ITC experiments were conducted using a Microcal VP instrument (Malvern Pananalytical, Malvern, UK). […] Dialysis was carried out in boiled Spectra/Por 1 6–8 kDa MWCO 0.32 ml/cm (Spectrum Labs, USA) tubing thoroughly washed with either buffer before use. The second 1000-fold volume of dialysis buffer was filtered and degassed using a reusable bottle-top filtration apparatus (Nalgene, USA) with disposable […] cellulose filters (VWR, Canada) prior to storage at 4 °C. Ligands were dissolved in the filtered dialysis buffer at 21 °C for approximately one hour, and any insoluble material was removed by repeated centrifugation at 21,000 × g for 10 min. […] Prior to ITC, which was initiated immediately following dialysis, the protein solutions were centrifuged at 17,000 × g and 4 °C for 30 min. Any precipitate was separated from the remaining soluble protein fraction which was quantified by absorption at A280nm and diluted with filtered dialysis buffer immediately before use.
(§1) Thermograms were recorded at 25 °C, with a reference power of 10 (dpu/sec) and monitoring of 30 injections of 9 µl BIA ligand solutions into a sample cell containing 1.4 ml of an MLP/PR10 protein solution, with 300 seconds between injections. […] To ensure that we report only the heat of reaction for each interaction, independent titrations of ligand into buffer, and buffer into protein solutions, were used to calculate and then subtract heats of dilution. After subtraction, binding isotherms were analyzed in MicroCal Origin 7 (MicroCal, USA) by fitting a single-site binding model using non-linear least squares regression analysis repeated until convergence. […] Each ITC experiment was repeated 2 to 4 times.
A general note: In ITC the heat of successive injections is recorded.

The target of data set [7] is MLP2. To be noted: read-out: Kd (ANS-protein, apparent); ANS 10 µM fixed, protein 0 to 100 µM; CBS pH 5.5; one-site hyperbolic model.
Experimental: as §4
Data set [8] concerns the target T4, PR10-10 (Papaver somniferum, UniProt A0A9Y2YA81).
T4 sequence (A0A9Y2YA81 1-158): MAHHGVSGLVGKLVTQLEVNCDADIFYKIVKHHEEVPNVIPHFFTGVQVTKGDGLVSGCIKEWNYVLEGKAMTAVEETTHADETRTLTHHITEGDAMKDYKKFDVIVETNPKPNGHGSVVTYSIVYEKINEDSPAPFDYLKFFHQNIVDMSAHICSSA
Put plainly: ANS fluorescence binding curve (direct ANS-protein affinity). To be noted: weak signal, Kd not determined.
Experimental: as §5

The target of data set [9] is T4, PR10-10. Nature of the data set: Isothermal titration calorimetry. To be noted: for Kd: ITC. The format is binding. The method, then: ITC experiments were conducted using a Microcal VP instrument (Malvern Pananalytical, Malvern, UK). […] Eluates were twice dialysed to equilibrium (i.e., 10–12 h at 4 °C) against a 1000-fold (2–4 L) volume of PBS, pH 7.4 (25 mM sodium phosphate, 50 mM NaCl) or CBS, pH 5.5, resulting in a theoretical million-fold dilution of undesired small molecules (e.g., <0.2 µM imidazole). Dialysis was carried out in boiled Spectra/Por 1 6–8 kDa MWCO 0.32 ml/cm (Spectrum Labs, USA) tubing thoroughly washed with either buffer before use. The second 1000-fold volume of dialysis buffer was filtered and degassed using a reusable bottle-top filtration apparatus (Nalgene, USA) with disposable […] cellulose filters (VWR, Canada) prior to storage at 4 °C. Ligands were dissolved in the filtered dialysis buffer at 21 °C for approximately one hour, and any insoluble material was removed by repeated centrifugation at 21,000 × g for 10 min. […] Prior to ITC, which was initiated immediately following dialysis, the protein solutions were centrifuged at 17,000 × g and 4 °C for 30 min. Any precipitate was separated from the remaining soluble protein fraction which was quantified by absorption at A280nm and diluted with filtered dialysis buffer immediately before use.
as §1

In data set [10] the target is T1, NISO. Put plainly: ANS displacement assay.
Experimental: (§6) 8-anilino-1-naphthalenesulfonic acid (ANS) fluorescence binding curves and the binding-induced reduction in ANS fluorescence resulting from competition with tested ligands across a range of concentration facilitated the measurement of IC50 and an estimate of Kd values using the binding models and procedures described previously[70]. […] ANS was dissolved in dimethylsufoxide at a concentration of 20 mM, stored at −20 °C until dilution and protected from exposure to light. […] 40 µl of the ANS solution and 40 µl of each MLP/PR10 protein solution were combined to 80 µl final reaction volumes, which were incubated at 21 °C for 10 min to allow equilibration of binding. Triplicate 18-µl aliquots were withdrawn from each 80 µl reaction, transferred to optically clear PCR tubes (Diamed, Canada) and ANS fluorescence was measured following an additional 3-min incubation at 30 °C using a Qiagen Rotor-gene Q 6-plex with excitation and emission filters of 365 ± 20 nm and 460 ± 20 nm, respectively. An identical reaction series whereby protein was omitted from the mixtures was measured under identical conditions and trace fluorescence was subtracted from each MLP/PR10 protein-containing sample. Each data set was scaled so that the maximum observed fluorescence corresponded to 100% and individual data points were plotted, and a rectangular hyperbolic ligand binding function was fit, using least-squares analysis (Prism 5 software, Graphpad, USA). Experiments were repeated at least twice with independently prepared protein.
(§7) Displacement of ANS is associated with reduced fluorescence. […] Briefly, 40 µl of 20 µM ANS and individual MLP/ PR10 protein solutions were combined in CBS buffer, pH 5.5, incubated at 21 °C for 5 min, mixed with 40 µl of separate 0 to 6 mM BIA solutions in CBS buffer, pH 5.5, and the 80 µl reactions were subsequently incubated for 10 min at 21 °C. Fluorescence was measured as described above, including subtraction of any fluorescence in a blank series whereby protein was omitted. […] Each experiment was repeated at least twice with independently prepared MLP/PR10 proteins and BIA ligand.
The nature of data set [11]: Ligand solubility threshold in ITC buffer. The format is physicochemical. To be noted: filtered dialysis buffer (CBS, 21 °C, aqueous buffer, thermodynamic from solid); pH 5.5, ITC buffer. The method, then:
ITC experiments were conducted using a Microcal VP instrument (Malvern Pananalytical, Malvern, UK). Recombinant MLP/PR10 protein preparation involving production in Escherichia coli followed by cobalt-affinity chromatography was optimized to yield relatively high purity in a single step as determined by SDS-PAGE and colloidal Coomassie blue silver staining. The less than 48 h decrease in atmospheric oxygen exposure generated high-quality proteins with reduced precipitate. […] Eluates were twice dialysed to equilibrium (i.e., 10–12 h at 4 °C) against a 1000-fold (2–4 L) volume of PBS, pH 7.4 (25 mM sodium phosphate, 50 mM NaCl) or CBS, pH 5.5, resulting in a theoretical million-fold dilution of undesired small molecules (e.g., <0.2 µM imidazole). […] Any precipitate was separated from the remaining soluble protein fraction which was quantified by absorption at A280nm and diluted with filtered dialysis buffer immediately before use.
Thermograms were recorded at 25 °C, with a reference power of 10 (dpu/sec) and monitoring of 30 injections of 9 µl BIA ligand solutions into a sample cell containing 1.4 ml of an MLP/PR10 protein solution, with 300 seconds between injections. […] After subtraction, binding isotherms were analyzed in MicroCal Origin 7 (MicroCal, USA) by fitting a single-site binding model using non-linear least squares regression analysis repeated until convergence. […]

Data set [12] in a line: Sucrose density-gradient fractionation of Przemko latex with exogenous alkaloid. Details: species or system Papaver somniferum. To be noted: exogenous alkaloid (420-460 mM) added to 80 µL Przemko latex, 14-66% sucrose gradient.
Experimental: Sucrose solutions (66%, 58%, 46%, 38%, 30%, 24 and 14% [w/v]) were prepared in 50 mM HEPES, pH 7.0, containing 5 mM EDTA. Continuous sucrose density gradients were prepared by layering the solutions (3 mL of 66, 58 and 46%, 6 mL of 38%, and 7 mL of 30, 24 and 14% [w/v] sucrose) in 38-mL thin-wall ultracentrifuge tubes (Beckman Coulter, USA) followed by equilibration at 4 °C for 24 h. Fresh latex (80 µL) was collected from decapitated unripe seed capsules in 1.5-mL microcentrifuge tubes and stored on ice for immediate loading on the sucrose gradients. […] Samples were incubated on ice for 30 min then diluted in 2 mL of latex suspension buffer (500 mM mannitol, 50 mM HEPES, pH 7.0, 5 mM EDTA, 1 mM PMSF) and layered onto sucrose density gradients, which were then centrifuged in an AH-629 rotor (Sorvall, USA) for 3 h at 100,000 × g at 4 °C. The bottom of the ultracentrifuge tube was punctured by a flame-heated 21 G needle and a total of 22 fractions (~1.7 mL) were collected manually. The refractive index of each fraction was measured by a digital refractometer (Reichert, USA) and converted to density. Protein concentration was determined by Bradford assay (BioRad, USA) and samples were stored at −80 °C until use.
Data set [13] deals with T4, PR10-10. Put plainly: ANS displacement assay. In kind it is binding. To be noted: ANS displacement dose-response fit. The source says:
(§2) Eluates were store separately on ice.
(§3) Displacement of ANS is associated with reduced fluorescence.

The target of data set [14] is T3, THS2. Nature of the data set: ANS displacement assay.
Experimental: as §6, §7
Data set [15] addresses T2, MLP15. Nature of the data set: ANS displacement assay.
Experimental: as §6, §7
The target of data set [16] is PR10-4. Put plainly: ANS displacement assay. The format is binding, Papaver somniferum.
From the text: as §2, §3

For data set [17], the target named is MLP2. Put plainly: ANS displacement assay. The format is binding, Papaver somniferum.
From the text: as §2, §3

Data set [18] concerns the target PR10-12. Nature of the data set: ANS displacement assay. In kind it is binding, Papaver somniferum.
From the text: as §2, §3

Data set [19] addresses T1, NISO. Set-up: made in house; host or cells: E. coli ArcticExpress (DE3). To be noted: read-out: Km app (substrate kinetics); cited from earlier work.
Data set [20] deals with THS. To be noted: cited from earlier work.
[21] abbreviates: 10 µM protein and 10 µM ANS, CBS pH 5.5.
Setting [22] is: from average IC50 and PR10-ANS Kd, competitive inhibition assumed, read-out: Estimated Kd.

Each structure is given as a SMILES string. ≈ marks a conversion by molar mass, not a printed value. Where “and” joins values, the source holds several entries; their conditions need not be identical. Equal entries are not always repeated. Where two headings read alike, the source gives them in different places.

T1 sequence (P0DYP9 entry or part of it): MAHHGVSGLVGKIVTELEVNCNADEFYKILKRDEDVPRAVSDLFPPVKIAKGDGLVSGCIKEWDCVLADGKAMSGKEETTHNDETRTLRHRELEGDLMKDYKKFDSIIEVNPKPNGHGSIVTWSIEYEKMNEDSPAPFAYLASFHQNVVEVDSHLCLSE
T3 sequence (A0A2U9GGW3 whole entry): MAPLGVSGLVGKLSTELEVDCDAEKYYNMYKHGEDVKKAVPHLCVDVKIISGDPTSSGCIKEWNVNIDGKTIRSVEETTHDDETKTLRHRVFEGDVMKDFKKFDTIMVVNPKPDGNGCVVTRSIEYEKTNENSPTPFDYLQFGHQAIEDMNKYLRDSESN

On to `O=S(=O)(O)c1cccc2cccc(Nc3ccccc3)c12` [ANS, 8-anilinonaphthalene-1-sulfonic acid], for which the Kd in data set [1] is 107 ± 15.3 µM; in data set [2], 356 ± 139 µM; in data set [3], 61 µM and 60.5 µM; in data set [4], 78 µM and 78.4 µM; in data set [5], 21 µM and 20.9 µM; in [6] (single-site model) it was 55.3 ± 2.8 µM. Besides, the Kd in [7] is 28.6 ± 3.9 µM. In data set [6], the ΔH is -14.69 ± 0.4972 kcal/mol. In data set [6], this compound gave a ΔS of -29.8 cal/mol/˚K. In data set [6] (single-site model), this compound returned an N of 1.06 ± 0.0244. The “ANS binding to PR10-10 (in words)” value in [8] is reported as “did not bind ANS in a typical manner”.
Consider `COc1ccc(Cc2nccc3cc(OC)c(OC)cc23)cc1OC` [Papaverine, papaverine], for which the “heat change of protein-ligand interaction after subtraction of the blank” value in data set [9] (ITC thermogram, pH 5.5) is -0.2 µcal/s. Further, the Kd in data set [9] (CBS buffer, Fig. 4b prints no unit, read-out: Kd) was about 225 µM; in [9] (CBS pH 5.5, printed in brackets beside *, read-out: Kd (estimate, low enthalpy system)) it was 225 µM; in [10] it was 82 µM; in data set [14], 333 µM; in [15], 265 µM; in [16] (setting [22]), 38.1 µM. Besides, the Kd was 45.5 µM in data set [17] (setting [22]) and 154 µM in [18] (setting [22]). Further, the half-inhibitory concentration (IC50) in [10] (IC50, NISO, 10 µM protein and 10 µM ANS, CBS pH 5.5) was 96 µM and 95.5 µM; in [14] (IC50, THS2, 10 µM protein and 10 µM ANS, CBS pH 5.5), 493 µM; in data set [15] (IC50, MLP15, 10 µM protein and 10 µM ANS, CBS pH 5.5), 299 µM; in [16] (setting [21]), 41.7 µM; in [17] (setting [21]), 61.4 µM; in [18] (setting [21]), 158 µM. The Log10IC50 came to 1.98 ± 0.05 in data set [10] (NISO, 10 µM protein and 10 µM ANS, CBS pH 5.5); 2.69 ± 0.71 in data set [14] (THS2, 10 µM protein and 10 µM ANS, CBS pH 5.5); 2.48 ± 0.08 in data set [15] (MLP15, 10 µM protein and 10 µM ANS, CBS pH 5.5); 1.62 ± 0.05 in data set [16] (setting [21]); 1.79 ± 0.07 in data set [17] (setting [21]); 2.20 ± 0.09 in [18] (setting [21]). Moreover, the “Hill Slope” value is reported as -1.20 ± 0.05 in data set [10] (NISO, ANS displacement dose-response fit); -0.36 ± 0.27 in data set [13]; -0.88 ± 0.34 in data set [14] (THS2, ANS displacement dose-response fit); -1.21 ± 0.08 in data set [15] (MLP15, ANS displacement dose-response fit). In addition, the concentration in solution in data set [11] (solubility) came to 1200 µM (≈ 407 µg/mL). The “formation of dense aggregate bands in gradient” value in data set [12] is “one or more visibly insoluble dense aggregate bands”.
As to `COc1ccc2c3c1O[C@H]1C(=O)C=C[C@H]4[C@@H](C2)N(C)CC[C@]314` [codeinone], the Michaelis-Menten constant (Km) in [19] is 48 µM.
As for `COC1=C[C@]23CCN(C)[C@H](Cc4ccc(OC)c(O)c42)C3=C[C@@H]1OC(C)=O` [salutaridinol-7-O-acetate], in data set [20], the “KA (substrate kinetics)” value is 22 µM.

For orientation: IC50 means the concentration at which inhibition is half-maximal. A high value points to weaker potency in that assay. What is called solubility is the dissolved amount per volume that the medium holds. What is called Km is the substrate concentration at which the rate is half of its maximum.
